The values below come from US20250326749A1, “COMPOUNDS, COMPOSITIONS, AND METHODS OF USING THEREOF” (Sionna Therapeutics Inc., priority 2022, published 2025).

This assay deals with T1, ΔF508-CFTR (Homo sapiens, UniProt P13569, DEL508-508).
T1 construct: expressed in transfected cells; host or cells: CFSMEo- (human CF submucosal gland epithelial cells, ΔF508/Q2X), transiently transfected by nucleofection
T1 sequence (P13569 with tags, fused parts or gaps DEL508-508): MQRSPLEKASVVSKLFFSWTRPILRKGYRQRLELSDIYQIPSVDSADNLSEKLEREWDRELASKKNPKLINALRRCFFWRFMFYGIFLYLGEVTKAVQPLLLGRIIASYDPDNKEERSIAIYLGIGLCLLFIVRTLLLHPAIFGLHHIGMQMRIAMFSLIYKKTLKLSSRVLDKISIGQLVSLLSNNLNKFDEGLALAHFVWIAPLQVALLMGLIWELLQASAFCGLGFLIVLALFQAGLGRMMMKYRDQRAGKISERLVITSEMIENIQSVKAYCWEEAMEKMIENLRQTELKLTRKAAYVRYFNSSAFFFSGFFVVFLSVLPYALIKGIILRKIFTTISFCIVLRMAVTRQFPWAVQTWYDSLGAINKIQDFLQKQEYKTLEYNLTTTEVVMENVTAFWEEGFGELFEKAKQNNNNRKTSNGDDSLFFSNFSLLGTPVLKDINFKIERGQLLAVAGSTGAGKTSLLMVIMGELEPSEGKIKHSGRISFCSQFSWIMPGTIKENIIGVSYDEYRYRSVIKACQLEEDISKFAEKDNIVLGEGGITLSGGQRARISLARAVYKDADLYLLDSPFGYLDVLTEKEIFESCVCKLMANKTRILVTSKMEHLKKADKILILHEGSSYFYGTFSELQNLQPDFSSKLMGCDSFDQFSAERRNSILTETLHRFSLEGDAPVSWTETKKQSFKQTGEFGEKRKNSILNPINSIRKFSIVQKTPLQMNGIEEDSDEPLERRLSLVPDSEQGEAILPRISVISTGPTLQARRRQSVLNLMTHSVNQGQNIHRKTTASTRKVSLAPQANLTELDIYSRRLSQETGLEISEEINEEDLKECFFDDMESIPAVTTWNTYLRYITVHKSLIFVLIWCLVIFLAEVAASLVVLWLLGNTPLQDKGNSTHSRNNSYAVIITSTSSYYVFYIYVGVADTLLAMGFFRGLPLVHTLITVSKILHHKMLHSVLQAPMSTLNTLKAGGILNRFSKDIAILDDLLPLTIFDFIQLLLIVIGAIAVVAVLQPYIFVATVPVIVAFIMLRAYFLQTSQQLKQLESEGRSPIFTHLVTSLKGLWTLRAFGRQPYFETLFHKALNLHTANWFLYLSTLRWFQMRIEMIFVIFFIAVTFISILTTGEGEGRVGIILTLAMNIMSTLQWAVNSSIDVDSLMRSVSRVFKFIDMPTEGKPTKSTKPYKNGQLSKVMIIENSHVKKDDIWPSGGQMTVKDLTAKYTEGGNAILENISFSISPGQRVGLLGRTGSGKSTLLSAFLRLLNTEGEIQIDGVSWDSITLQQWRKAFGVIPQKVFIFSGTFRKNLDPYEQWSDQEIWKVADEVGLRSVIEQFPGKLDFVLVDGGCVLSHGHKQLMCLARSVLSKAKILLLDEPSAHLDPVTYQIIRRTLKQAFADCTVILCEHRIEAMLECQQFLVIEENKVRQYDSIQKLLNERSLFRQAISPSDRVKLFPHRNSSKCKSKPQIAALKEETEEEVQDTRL
Briefly: ΔF508-CFTR-HRP trafficking assay (cell surface expression of ΔF508-CFTR). Type of assay: cell-based. The note with it: CFSMEo- cells transiently transfected with ΔF508-CFTR-HRP; test agent 3 μM, 48 h; HRP chemiluminescence. From the text:
Test agents were screened for their effect on cell surface expression of ΔF508-CFTR using the ΔF508-CFTR-HRP trafficking assay. For this assay, a ΔF508-CFTR expression construct was designed with an in-frame insertion of a horseradish peroxidase (HRP) tag into the 4th extracellular loop of CFTR. The HRP tag would be presented extracellularly, in cells transiently transfected with the ΔF508-CFTR-HRP construct, following correction of the ΔF508-CFTR trafficking defect. The quantity of ΔF508-CFTR-HRP expressed on the plasma membrane could therefore be determined by measuring an HRP-dependent signal after the application of a cell-impermeable HRP substrate.
In brief, CF submucosal gland epithelial cells (CFSMEo-), derived from the airways of a CF patient (ΔF508/Q2X) and provided by Dr. Dieter Gruenert, University of California-San Francisco, were cultured at 37° C. with 5% CO2 in minimum essential medium (MEM) with Earle's salt and nonessential amino acids, supplemented with 10% (volume per volume [v/v]) fetal bovine serum, 2 mM L-glutamine and 1× (v/v) penicillin/streptomycin and grown in tissue culture-treated flasks coated with an extracellular matrix (ECM) cocktail consisting of 10 μg/mL human fibronectin, 30 μg/mL bovine collagen type I, and 100 μg/mL bovine serum albumin in LHC basal medium. These CFSMEo^− cells were transiently transfected with 4 μg of the ΔF508-CFTR-HRP expression construct using the Lonza 4D-Nucleofector Core unit (Lonza, Catalogue No. AAF-1002B) with the X unit (Lonza, Catalogue No. AAF-1002X) and SF Cell Line 4D-Nucleofector X Kit L (Lonza, Catalogue No. V4XC-2024) according to the manufacturer's instructions and plated at 1.2×10^4 cells/well onto collagen-coated, 96-well plates (Corning Inc.). Twenty-four h post-transfection, cells were treated with test agents, solubilized in DMSO at a concentration of 3 μM in replicates of 3, and allowed to incubate for 48 h. To detect HRP expression, cell culture media was removed, cells were washed with PBS and 100 μL of Luminata Forte HRP chemiluminescent substrate (EMD Millipore, Burlington, MA) was added to each well. Following a 5-minute incubation, chemiluminescence was measured in relative luminescent units (RLUs) using an EnVision plate reader (Perkin Elmer, Waltham, MA).
The ΔF508-CFTR-HRP trafficking data was normalized to the vehicle treated control (0.3% DMSO), followed by calculation of the mean, standard deviation, and standard error. If the test agent increased cell surface expression of ΔF508-CFTR-HRP relative to the vehicle-treated control, then that test agent was considered a ΔF508-CFTR corrector. Based on the description above, the biological activity of the examples in this disclosure is collected in Table 2.
For `C[C@H](Nc1cc(-n2nc(C(F)(F)F)c3c2[C@@H](NC24CC(C(=O)O)(C2)C4)CCC3)ccc1F)c1ccc2c(c1)OC(F)(F)O2` (single isomer, unassigned) [94 (P1)], the “RLUs: ΔF508-CFTR-HRP trafficking data normalized to the vehicle treated control (0.3% DMSO)” value is listed as “C (RLU 0.0 μM-3.5 μM)”.

Turning to `C[C@H](Nc1cc(-n2nc(C(F)(F)F)c3c2[C@H](NC24CC(C(=O)O)(C2)C4)CCC3)ccc1F)c1ccc2c(c1)OC(F)(F)O2` (single isomer, unassigned) [94 (P2)], the “RLUs: ΔF508-CFTR-HRP trafficking data normalized to the vehicle treated control (0.3% DMSO)” value is reported as “C (RLU 0.0 μM-3.5 μM)”.

Consider `C[C@H](Nc1cc(-n2nc(C(F)(F)F)c3c2[C@H](OC24CC(C(=O)O)(C2)C4)CCC3)ccc1F)c1ccc2c(c1)OC(F)(F)O2` (single isomer, unassigned) [95 (P2)], for which the “RLUs: ΔF508-CFTR-HRP trafficking data normalized to the vehicle treated control (0.3% DMSO)” value is on record as “C (RLU 0.0 μM-3.5 μM)”.

Turning to `C[C@H](Nc1cc(-n2nc(C(F)(F)F)c3c2[C@@H](OC24CC(C(=O)O)(C2)C4)CCC3)ccc1F)c1cc2c(cc1F)OC(F)(F)O2` (single isomer, unassigned) [96 (P1)], the “RLUs: ΔF508-CFTR-HRP trafficking data normalized to the vehicle treated control (0.3% DMSO)” value is on record as “B (RLU 3.5 μM-5.0 μM)”.

As to `C[C@H](Nc1cc(-n2nc(C(F)(F)F)c3c2[C@H](OC24CC(C(=O)O)(C2)C4)CCC3)ccc1F)c1cc2c(cc1F)OC(F)(F)O2` (single isomer, unassigned) [96 (P2)], the “RLUs: ΔF508-CFTR-HRP trafficking data normalized to the vehicle treated control (0.3% DMSO)” value is reported as “C (RLU 0.0 μM-3.5 μM)”.

Consider `C[C@H](Nc1cccc(-n2nc(C(F)(F)F)c3c2[C@@H](OC24CC(C(=O)O)(C2)C4)CCC3)c1)c1cc2c(cc1F)OC(F)(F)O2` (single isomer, unassigned) [97 (P1)], for which the “RLUs: ΔF508-CFTR-HRP trafficking data normalized to the vehicle treated control (0.3% DMSO)” value is recorded as “C (RLU 0.0 μM-3.5 μM)”.

Take `C[C@H](Nc1cccc(-n2nc(C(F)(F)F)c3c2[C@H](OC24CC(C(=O)O)(C2)C4)CCC3)c1)c1cc2c(cc1F)OC(F)(F)O2` (single isomer, unassigned) [97 (P2)]: the “RLUs: ΔF508-CFTR-HRP trafficking data normalized to the vehicle treated control (0.3% DMSO)” value was “C (RLU 0.0 μM-3.5 μM)”.

In the case of `C[C@H](Nc1ccc(F)c(-n2nc(C(F)(F)F)c3c2[C@@H](OC24CC(C(=O)O)(C2)C4)CCC3)c1)c1cc2c(cc1F)OC(F)(F)O2` (single isomer, unassigned) [98 (P1)], the “RLUs: ΔF508-CFTR-HRP trafficking data normalized to the vehicle treated control (0.3% DMSO)” value is given as “C (RLU 0.0 μM-3.5 μM)”.

For `C[C@H](Nc1ccc(F)c(-n2nc(C(F)(F)F)c3c2[C@H](OC24CC(C(=O)O)(C2)C4)CCC3)c1)c1cc2c(cc1F)OC(F)(F)O2` (single isomer, unassigned) [98 (P2)], the “RLUs: ΔF508-CFTR-HRP trafficking data normalized to the vehicle treated control (0.3% DMSO)” value is on record as “C (RLU 0.0 μM-3.5 μM)”.

`C[C@H](Nc1ccc(F)c(-n2nc(C(F)(F)F)c3c2[C@@H](OC24CC(C(=O)O)(C2)C4)CCC3)c1)c1ccc2c(c1)OC(F)(F)O2` (single isomer, unassigned) [99 (P1)]: the “RLUs: ΔF508-CFTR-HRP trafficking data normalized to the vehicle treated control (0.3% DMSO)” value is given as “C (RLU 0.0 μM-3.5 μM)”.

As for `C[C@H](Nc1ccc(F)c(-n2nc(C(F)(F)F)c3c2[C@H](OC24CC(C(=O)O)(C2)C4)CCC3)c1)c1ccc2c(c1)OC(F)(F)O2` (single isomer, unassigned) [99 (P2)], the “RLUs: ΔF508-CFTR-HRP trafficking data normalized to the vehicle treated control (0.3% DMSO)” value is reported as “C (RLU 0.0 μM-3.5 μM)”.

Take `C[C@H](Nc1cccc(-n2nc(C(F)(F)F)c3c2[C@@H](OC24CC(C(=O)O)(C2)C4)CCC3)n1)c1ccc2c(c1)OC(F)(F)O2` (single isomer, unassigned) [100 (P1)]: the “RLUs: ΔF508-CFTR-HRP trafficking data normalized to the vehicle treated control (0.3% DMSO)” value is given as “A (RLU 5.0 μM-10 μM)”.

In the case of `C[C@H](Nc1cccc(-n2nc(C(F)(F)F)c3c2[C@H](OC24CC(C(=O)O)(C2)C4)CCC3)n1)c1ccc2c(c1)OC(F)(F)O2` (single isomer, unassigned) [100 (P2)], the “RLUs: ΔF508-CFTR-HRP trafficking data normalized to the vehicle treated control (0.3% DMSO)” value is recorded as “C (RLU 0.0 μM-3.5 μM)”.

As for `C[C@H](Nc1nc(-n2nc(C(F)(F)F)c3c2[C@@H](OC24CC(C(=O)O)(C2)C4)CCC3)ccc1F)c1ccc2c(c1)OC(F)(F)O2` (single isomer, unassigned) [101 (P1)], the “RLUs: ΔF508-CFTR-HRP trafficking data normalized to the vehicle treated control (0.3% DMSO)” value is reported as “C (RLU 0.0 μM-3.5 μM)”.

Turning to `C[C@H](Nc1nc(-n2nc(C(F)(F)F)c3c2[C@H](OC24CC(C(=O)O)(C2)C4)CCC3)ccc1F)c1ccc2c(c1)OC(F)(F)O2` (single isomer, unassigned) [101 (P2)], the “RLUs: ΔF508-CFTR-HRP trafficking data normalized to the vehicle treated control (0.3% DMSO)” value is listed as “C (RLU 0.0 μM-3.5 μM)”.

As for `C[C@H](Nc1cc(-n2nc(C(F)(F)F)c3c2[C@@H](OC24CC(c5nc(=O)o[nH]5)(C2)C4)CCC3)ccc1F)c1ccc2c(c1)OC(F)(F)O2` (single isomer, unassigned) [102 (P1)], the “RLUs: ΔF508-CFTR-HRP trafficking data normalized to the vehicle treated control (0.3% DMSO)” value was “C (RLU 0.0 μM-3.5 μM)”.

With `C[C@H](Nc1cc(-n2nc(C(F)(F)F)c3c2[C@H](OC24CC(c5nc(=O)o[nH]5)(C2)C4)CCC3)ccc1F)c1ccc2c(c1)OC(F)(F)O2` (single isomer, unassigned) [102 (P2)], the “RLUs: ΔF508-CFTR-HRP trafficking data normalized to the vehicle treated control (0.3% DMSO)” value is “B (RLU 3.5 μM-5.0 μM)”.

In the case of `C[C@H](Nc1cc(-n2nc(C(F)(F)F)c3c2[C@@H](OC24CC(c5nc(=O)o[nH]5)(C2)C4)CCC3)ccc1F)c1cc2c(cc1F)OC(F)(F)O2` (single isomer, unassigned) [103 (P1)], the “RLUs: ΔF508-CFTR-HRP trafficking data normalized to the vehicle treated control (0.3% DMSO)” value was “B (RLU 3.5 μM-5.0 μM)”.

`C[C@H](Nc1cc(-n2nc(C(F)(F)F)c3c2[C@H](OC24CC(c5nc(=O)o[nH]5)(C2)C4)CCC3)ccc1F)c1cc2c(cc1F)OC(F)(F)O2` (single isomer, unassigned) [103 (P2)]: the “RLUs: ΔF508-CFTR-HRP trafficking data normalized to the vehicle treated control (0.3% DMSO)” value is on record as “C (RLU 0.0 μM-3.5 μM)”.

As for `C[C@H](Oc1cc(-n2nc(C#N)c3c2[C@@H](OC24CC(C(=O)O)(C2)C4)CCC3)ccc1F)c1ccc2c(c1)OC(F)(F)O2` (single isomer, unassigned) [105 (P1)], the “RLUs: ΔF508-CFTR-HRP trafficking data normalized to the vehicle treated control (0.3% DMSO)” value is reported as “B (RLU 3.5 μM-5.0 μM)”.

Turning to `C[C@H](Oc1cc(-n2nc(C#N)c3c2[C@H](OC24CC(C(=O)O)(C2)C4)CCC3)ccc1F)c1ccc2c(c1)OC(F)(F)O2` (single isomer, unassigned) [105 (P2)], the “RLUs: ΔF508-CFTR-HRP trafficking data normalized to the vehicle treated control (0.3% DMSO)” value is “B (RLU 3.5 μM-5.0 μM)”.

`C[C@H](Nc1cc(-n2nc(C#N)c3c2[C@@H](OC24CC(C(=O)O)(C2)C4)CCC3)ccc1F)c1ccc2c(c1)OC(F)(F)O2` (single isomer, unassigned) [106 (P1)]: the “RLUs: ΔF508-CFTR-HRP trafficking data normalized to the vehicle treated control (0.3% DMSO)” value is reported as “B (RLU 3.5 μM-5.0 μM)”.

Turning to `C[C@H](Nc1cc(-n2nc(C#N)c3c2[C@H](OC24CC(C(=O)O)(C2)C4)CCC3)ccc1F)c1ccc2c(c1)OC(F)(F)O2` (single isomer, unassigned) [106 (P2)], the “RLUs: ΔF508-CFTR-HRP trafficking data normalized to the vehicle treated control (0.3% DMSO)” value was “C (RLU 0.0 μM-3.5 μM)”.

As for `C[C@H](Nc1cc(-n2nc(C#N)c3c2[C@@H](OC24CC(C(=O)O)(C2)C4)CCC3)ncc1F)c1ccc2c(c1)OC(F)(F)O2` (single isomer, unassigned) [107 (P1)], the “RLUs: ΔF508-CFTR-HRP trafficking data normalized to the vehicle treated control (0.3% DMSO)” value is reported as “C (RLU 0.0 μM-3.5 μM)”.

As for `C[C@H](Nc1cc(-n2nc(C#N)c3c2[C@H](OC24CC(C(=O)O)(C2)C4)CCC3)ncc1F)c1ccc2c(c1)OC(F)(F)O2` (single isomer, unassigned) [107 (P2)], the “RLUs: ΔF508-CFTR-HRP trafficking data normalized to the vehicle treated control (0.3% DMSO)” value is recorded as “C (RLU 0.0 μM-3.5 μM)”.

`C[C@H](Nc1nc(-n2nc(C#N)c3c2[C@@H](OC24CC(C(=O)O)(C2)C4)CCC3)ccc1F)c1ccc2c(c1)OC(F)(F)O2` (single isomer, unassigned) [108 (P1)]: the “RLUs: ΔF508-CFTR-HRP trafficking data normalized to the vehicle treated control (0.3% DMSO)” value was “C (RLU 0.0 μM-3.5 μM)”.

As to `C[C@H](Nc1nc(-n2nc(C#N)c3c2[C@H](OC24CC(C(=O)O)(C2)C4)CCC3)ccc1F)c1ccc2c(c1)OC(F)(F)O2` (single isomer, unassigned) [108 (P2)], the “RLUs: ΔF508-CFTR-HRP trafficking data normalized to the vehicle treated control (0.3% DMSO)” value is listed as “C (RLU 0.0 μM-3.5 μM)”.

Take `C[C@H](Oc1cc(-n2nc(C(F)(F)F)c3c2[C@@H](Oc2ccc(C(=O)O)cc2)CN(C)C3)ccn1)c1ccc2c(c1)OC(F)(F)O2` (single isomer, unassigned) [115 (P1)]: the “RLUs: ΔF508-CFTR-HRP trafficking data normalized to the vehicle treated control (0.3% DMSO)” value is on record as “B (RLU 3.5 μM-5.0 μM)”.
